Calls of active or inactive are those of the source. The rule behind the calls is not given here.
Experiments:
L1210 = test: Cytotoxicity against mouse L1210 cells after 24 hrs by MTT assay; type: functional, cell-based; conditions: L1210, 24 h
Jurkat = test: Cytotoxicity against human Jurkat cells after 48 hrs by MTT assay; type: functional, cell-based
HeLa [1] = test: Antimitotic activity in human HeLa cells assessed as tubulin intensity after 24 hrs by Hoechst 33342 staining; type: functional; conditions: read-out: MEC
HeLa [2] = test: Antimitotic activity in human HeLa cells assessed as chromatin condensation after 24 hrs by Hoechst 33342 staining; type: functional; conditions: read-out: MEC
PBMC = test: Cytotoxicity against human PBMC cells after 24 hrs by MTT assay; type: cell-based
REH = test: Cytotoxicity against human REH cells after 48 hrs by MTT assay; type: functional, cell-based
HeLa [3] = test: Antimitotic activity in human HeLa cells assessed as increase in phosphohistone H3 level after 24 hrs by Hoechst 33342 staining; type: functional
[4] = Inhibition of bovine brain tubulin assembly after 20 mins by spectrophotometric analysis; set-up: species or system Bos taurus
HeLa [5] = test: Antimitotic activity in human HeLa cells assessed as cell density loss after 24 hrs by Hoechst 33342 staining; type: functional, cell-based
MDA-MB-231 [6] = test: Antimigratory activity against human MDA-MB-231 cells after 6 hrs by Boyden chamber migration assay; type: functional, cell-based; conditions: MDA-MB-231, 6 h
MDA-MB-231 [7] = test: Antimigratory activity against human MDA-MB-231 cells at 1 uM after 22 hrs by scratch wound healing assay; type: functional
HeLa [8] = test: Cell cycle arrest in human HeLa cells assessed as disorganized microtubules at 470 nM after 24 hrs by Hoechst 33342 staining; type: functional, cell-based
HUVEC = test: Cytotoxicity against human HUVEC cells after 24 hrs by MTT assay; type: cell-based
HeLa [9] = test: Antimitotic activity in human HeLa cells assessed as tubulin staining intensity at 1 nM after 24 hrs by Hoechst 33342 staining; type: functional, cell-based
NIH3T3 = test: Cytotoxicity against mouse NIH/3T3 cells after 24 hrs by MTT assay; type: cell-based; conditions: NIH3T3, 24 h
MDA-MB-231 [10] = test: Antimigratory activity against human MDA-MB-231 cells at 0.5 to 5 uM after 22 hrs by scratch wound healing assay; type: functional, cell-based
HeLa [11] = test: Antimitotic activity in human HeLa cells assessed as tubulin staining intensity at 5 nM after 24 hrs by Hoechst 33342 staining; type: functional, cell-based
HeLa [12] = test: Cell cycle arrest in human HeLa cells assessed as disorganized microtubules at 62 nM after 24 hrs by Hoechst 33342 staining; type: functional, cell-based
HeLa [13] = test: Cell cycle arrest in human HeLa cells assessed as disorganized microtubules at 940 nM after 24 hrs by Hoechst 33342 staining; type: functional, cell-based

For `CCCCOc1ccc(/C=C/C(=O)c2cc(OC)c(OC)c(OC)c2)cc1`, the IC50 (L1210) was > 100 µM.

Molecule `COc1cc(C(=O)/C=C/c2c(Cl)cccc2Cl)cc(OC)c1OC` has an IC50 (L1210) of 50.5 µM.

For `COc1cc(OC)c(OC)cc1/C=C/C(=O)c1cc(OC)c(OC)c(OC)c1`, the IC50 (L1210) was 42.5 µM.

`COc1ccc(/C=C/C(=O)c2cc(OC)c(OC)c(OC)c2)cc1` gave an IC50 (L1210) of 48 µM.

For `COc1cc(C(=O)/C=C/c2ccc(Cl)cc2)cc(OC)c1OC`, the IC50 (L1210) was 44.5 µM.

`COc1cc(C(=O)/C=C/c2ccc3ccccc3c2)ccc1O` gave an IC50 (Jurkat) of 5.9 µM, a minimal effective concentration (HeLa [1]) of 1.1 µM and a minimal effective concentration (HeLa [2]) of 2.2 µM. The IC50 (PBMC) was 35.6 µM, the IC50 (REH) was 2580 nM and the IC50 (L1210) was 54 µM. It also gave an Activity (HeLa [3]) of 1400 nM, an IC50 [4] of 3.6 µM and an EC50 (HeLa [5]) of 3300 nM.

In the case of `O=C(/C=C/c1ccccc1)c1ccccc1` [CHALCONE], the IC50 (Jurkat) is reported as 17.1 µM, the minimal effective concentration (HeLa [1]) is reported as > 50 µM and the minimal effective concentration (HeLa [2]) is reported as > 50 µM. The IC50 (PBMC) was 27 µM, the IC50 (L1210) was > 100 µM and the Activity (HeLa [3]) was > 50000 nM. For the same molecule, the IC50 [4] was > 10 µM and the EC50 (HeLa [5]) was > 50000 nM.

For `COc1cc(C(=O)/C=C/c2ccc(N(C)C)cc2)cc(OC)c1OC` (mixture of isomers), the IC50 (Jurkat) was 1.2 µM, the IC50 (PBMC) was 92.5 µM and the IC50 (MDA-MB-231 [6]) was 656 nM. For the same molecule, the Activity (MDA-MB-231 [7]) was 54%, the Activity (HeLa [8]) was “Active” and the IC50 (HUVEC) was > 100 µM. The IC50 (REH) was 1050 nM, the Activity (HeLa [9]) was “inactive” and the IC50 (NIH3T3) was 66 µM. The Activity (MDA-MB-231 [10]) was “Active”, the IC50 (L1210) was 30 µM and the Activity (HeLa [3]) was 200 nM. The Activity (HeLa [11]) was “Active”, the IC50 [4] was 2.8 µM and the EC50 (HeLa [5]) was 357 nM.

In the case of `COc1cc(C(=O)/C=C/c2cccc([N+](=O)[O-])c2)cc(OC)c1OC`, the IC50 (L1210) is reported as > 56 µM.

`COc1cc(C(=O)/C=C/c2ccc(C)o2)cc(OC)c1OC` showed an IC50 (L1210) of 46.5 µM.

In the case of `COc1ccc(/C=C/C(=O)c2ccc3c(c2)OCO3)c(OC)c1OC`, the IC50 (Jurkat) is reported as 30 µM, the minimal effective concentration (HeLa [1]) is reported as > 50 µM and the minimal effective concentration (HeLa [2]) is reported as > 50 µM. The IC50 (PBMC) was 81.2 µM, the IC50 (REH) was 23600 nM and the IC50 (L1210) was 47.5 µM. For the same molecule, the Activity (HeLa [3]) was > 50000 nM, the IC50 [4] was > 10 µM and the EC50 (HeLa [5]) was > 50000 nM.

For `COc1cc(C(=O)/C=C/c2cc(Cl)cc(Cl)c2)cc(OC)c1OC`, the IC50 (L1210) was 44 µM.

In the case of `COc1cc(/C=C/C(=O)c2cc(OC)c(OC)c(OC)c2)ccc1O`, the IC50 (L1210) is reported as > 100 µM.

For `COc1cc(C(=O)/C=C/c2ccc(Cl)cc2Cl)cc(OC)c1OC`, the IC50 (L1210) was 52.5 µM.

`COc1cc(C(=O)/C=C/c2ccc(C)cc2)cc(OC)c1OC` gave an IC50 (L1210) of 50.5 µM.

For `COc1cc(C(=O)/C=C/c2ccc([N+](=O)[O-])cc2)cc(OC)c1OC`, the IC50 (L1210) was > 100 µM.

Work on `COc1cc(C(=O)/C=C/c2ccc(Cl)c(C(F)(F)F)c2)cc(OC)c1OC` yielded an IC50 (L1210) of 47.5 µM.

In the case of `COc1cc(/C=C/C(=O)c2cc(OC)c(OC)c(OC)c2)cc(OC)c1OC`, the IC50 (L1210) is reported as > 100 µM.

`COc1cc(OC)c(/C=C/C(=O)c2cc(OC)c(OC)c(OC)c2)c(OC)c1` showed an IC50 (L1210) of 62.5 µM.

For `COc1cc2c(c(OC)c1OC)-c1ccc(OC)c(=O)cc1[C@@H](NC(C)=O)CC2` [COLCHICINE], the Activity (HeLa [12]) was “Active”, the Activity (MDA-MB-231 [7]) was 74% and the Activity (HeLa [9]) was “inactive”. For the same molecule, the Activity (MDA-MB-231 [10]) was “Active” and the Activity (HeLa [11]) was “Active”.

Work on `COc1cc(C(=O)/C=C/c2ccc(Cl)c(Cl)c2)cc(OC)c1OC` yielded an IC50 (L1210) of 44 µM.

For `COc1cc(C(=O)/C=C/c2ccc(Br)cc2)cc(OC)c1OC`, the IC50 (L1210) was > 100 µM.

For `COc1cc(C(=O)/C=C/c2ccc3ccccc3c2)cc(OC)c1OC`, the IC50 (Jurkat) was 0.5 µM, the IC50 (PBMC) was 18 µM and the IC50 (MDA-MB-231 [6]) was 1100 nM. It also gave an Activity (MDA-MB-231 [7]) of 46%, an IC50 (HUVEC) of 37 µM and an IC50 (REH) of 730 nM. The Activity (HeLa [13]) was “Active”, the Activity (HeLa [9]) was “inactive” and the IC50 (NIH3T3) was 34 µM. For the same molecule, the Activity (MDA-MB-231 [10]) was “Active”, the IC50 (L1210) was 26 µM and the Activity (HeLa [3]) was 397 nM. For the same molecule, the Activity (HeLa [11]) was “Active”, the IC50 [4] was 2.2 µM and the EC50 (HeLa [5]) was 684 nM.

`COc1cc(C(=O)/C=C/c2ccc(F)cc2)cc(OC)c1OC` showed an IC50 (L1210) of 46.5 µM.
